Values after ≈ are worked out from the molar mass of the structure shown.
Tests used:
Nakaseomyces glabratus [1] = assay: Antifungal activity against Candida glabrata ATCC 2001 measured after 48 hrs by CLSI M27-A3 protocol based method; type: functional, CBS 138
Candida parapsilosis [2] = assay: Antifungal activity against Candida parapsilosis ATCC 22019 measured after 48 hrs by CLSI M27-A3 protocol based method; type: functional; details: for MIC: Lodderomyces parapsilosis, ATCC 22019, 48 h
Candida albicans [3] = assay: Antifungal activity against fluconazole/ITC-susceptible Candida albicans ATCC MYA-2876 measured after 48 hrs by CLSI M27-A3 protocol based method; type: functional; details: for MIC: Candida albicans, ATCC MYA-2876, 48 h
Candida albicans [4] = assay: Antifungal activity against fluconazole/ITC-resistant Candida albicans ATCC 90819 measured after 48 hrs by CLSI M27-A3 protocol based method; type: functional
Candida albicans [5] = assay: Antifungal activity against fluconazole/ITC-susceptible Candida albicans ATCC MYA-2310 measured after 48 hrs by CLSI M27-A3 protocol based method; type: functional
Candida albicans [6] = assay: Antifungal activity against Candida albicans ATCC 10231 measured after 48 hrs in presence of 10% FBS by CLSI M27-A3 protocol based method; type: functional; details: Candida albicans, ATCC 10231, 48 h
Nakaseomyces glabratus [7] = assay: Antifungal activity against Candida glabrata isolate CG2 measured after 48 hrs by CLSI M27-A3 protocol based method; type: functional
Aspergillus flavus = assay: Antifungal activity against Aspergillus flavus ATCC MYA-3631 measured after 48 hrs by CLSI M38-A2 protocol based method; type: functional; details: ATCC MYA-3631, 48 h
Candida albicans [8] = assay: Antifungal activity against fluconazole/ITC-resistant Candida albicans ATCC MYA-1003 measured after 48 hrs by CLSI M27-A3 protocol based method; type: functional; details: Candida albicans, ATCC MYA-1003, 48 h; read-out: MIC
Cryptococcus neoformans [9] = assay: Antifungal activity against Cryptococcus neoformans isolate CN2 measured after 48 hrs by CLSI M27-A3 protocol based method; type: functional
Cryptococcus neoformans [10] = assay: Antifungal activity against Cryptococcus neoformans isolate CN3 measured after 48 hrs by CLSI M27-A3 protocol based method; type: functional
Nakaseomyces glabratus [11] = assay: Antifungal activity against Candida glabrata isolate CG1 measured after 48 hrs by CLSI M27-A3 protocol based method; type: functional
Cryptococcus neoformans [12] = assay: Antifungal activity against Cryptococcus neoformans isolate CN1 measured after 48 hrs by CLSI M27-A3 protocol based method; type: functional; details: isolate CN1, 48 h
Candida albicans [13] = assay: Antifungal activity against fluconazole/ITC-resistant Candida albicans ATCC MYA-1237 measured after 48 hrs by CLSI M27-A3 protocol based method; type: functional; details: Candida albicans, ATCC MYA-1237, 48 h; read-out: MIC
Candida albicans [14] = assay: Antifungal activity against Candida albicans ATCC 10231 measured after 48 hrs by CLSI M27-A3 protocol based method; type: functional; details: ATCC 10231, 48 h
Candida parapsilosis [15] = assay: Antifungal activity against Candida parapsilosis isolate CP3 measured after 48 hrs by CLSI M27-A3 protocol based method; type: functional; details: for MIC: Lodderomyces parapsilosis, isolate CP3, 48 h
Aspergillus terreus = assay: Antifungal activity against Aspergillus terreus ATCC MYA-3633 measured after 48 hrs by CLSI M38-A2 protocol based method; type: functional; details: ATCC MYA-3633, 48 h
Aspergillus nidulans = assay: Antifungal activity against Aspergillus nidulans ATCC 38163 measured after 48 hrs by CLSI M38-A2 protocol based method; type: functional; details: ATCC 38163, 48 h
Pichia kudriavzevii = assay: Antifungal activity against Candida krusei ATCC 6258 measured after 48 hrs by CLSI M27-A3 protocol based method; type: functional; details: for MIC: Pichia kudriavzevii, ATCC 6258, 48 h
Candida albicans [16] = assay: Antifungal activity against Candida albicans ATCC 64124 measured after 48 hrs by CLSI M27-A3 protocol based method; type: functional
Candida parapsilosis [17] = assay: Antifungal activity against Candida parapsilosis isolate CP1 measured after 48 hrs by CLSI M27-A3 protocol based method; type: functional; details: for MIC: Lodderomyces parapsilosis, isolate CP1, 48 h
Nakaseomyces glabratus [18] = assay: Antifungal activity against Candida glabrata isolate CG3 measured after 48 hrs by CLSI M27-A3 protocol based method; type: functional
Candida parapsilosis [19] = assay: Antifungal activity against Candida parapsilosis isolate CP2 measured after 48 hrs by CLSI M27-A3 protocol based method; type: functional; details: for MIC: Lodderomyces parapsilosis, isolate CP2, 48 h
[20] = Nakaseomyces glabratus, CBS 138, 48 h, read-out: MIC
[21] = Candida albicans, ATCC 90819, 48 h, read-out: MIC
[22] = Candida albicans, ATCC MYA-2310, 48 h, read-out: MIC
[23] = Nakaseomyces glabratus, isolate CG2, 48 h, read-out: MIC
[24] = Cryptococcus neoformans, isolate CN2, 48 h, read-out: MIC
[25] = Cryptococcus neoformans, isolate CN3, 48 h, read-out: MIC
[26] = Nakaseomyces glabratus, 48 h, read-out: MIC
[27] = Candida albicans, ATCC 64124, 48 h, read-out: MIC

SMILES | MIC (Nakaseomyces glabratus [1]; [20]) | MIC (Candida parapsilosis [2]) | MIC (Candida albicans [3]) | MIC (Candida albicans [4]; [21]) | MIC (Candida albicans [5]; [22]) | MIC (Nakaseomyces glabratus [7]; [23]) | MIC (Aspergillus flavus) | MIC (Candida albicans [8]) | MIC (Cryptococcus neoformans [9]; [24]) | MIC (Cryptococcus neoformans [10]; [25]) | MIC (Nakaseomyces glabratus [11]; [26]) | MIC (Cryptococcus neoformans [12]) | MIC (Candida albicans [13]) | MIC (Candida albicans [14]) | MIC (Candida parapsilosis [15]) | MIC (Aspergillus terreus) | MIC (Aspergillus nidulans) | MIC (Pichia kudriavzevii) | MIC (Candida albicans [16]; [27]) | MIC (Candida parapsilosis [17]) | further results
C[C@@H]1[C@H](O)[C@@H](C)/C=C/C=C/C=C/C=C/C=C/C=C/C=C/[C@H](O[C@@H]2O[C@H](C)[C@@H](O)[C@H](N)[C@@H]2O)C[C@@H]2O[C@](O)(C[C@@H](O)C[C@@H](O)[C@H](O)CC[C@@H](O)C[C@@H](O)CC(=O)O[C@H]1C)C[C@H](O)[C@H]2C(=O)O [AMPHOTERICIN B] | 2.1 µM (≈ 1.94 µg/mL) | 2.1 µM (≈ 1.94 µg/mL) | 2.1 µM (≈ 1.94 µg/mL) | 1.1 µM (≈ 1.02 µg/mL) | 2.1 µM (≈ 1.94 µg/mL) | – | – | – | – | – | – | – | – | – | – | – | – | – | – | – | MIC (Candida albicans [6]): 7.8 µg/mL
CC(C)c1ccc(NCC(O)(Cn2cncn2)c2ccc(F)cc2F)cc1 (configuration not stated) | 20.9 to 84 µM (≈ 7.78 to 31.3 µg/mL) | 20.9 µM (≈ 7.78 µg/mL) | > 84 µM | 84 µM (≈ 31.3 µg/mL) | 84 µM (≈ 31.3 µg/mL) | 20.9 µM (≈ 7.78 µg/mL) | 84 µM (≈ 31.3 µg/mL) | 84 µM (≈ 31.3 µg/mL) | 84 µM (≈ 31.3 µg/mL) | > 84 µM | 20.9 µM (≈ 7.78 µg/mL) | 20.9 µM (≈ 7.78 µg/mL) | 84 µM (≈ 31.3 µg/mL) | > 84 µM | 10.5 µM (≈ 3.91 µg/mL) | 41.9 µM (≈ 15.6 µg/mL) | 20.9 µM (≈ 7.78 µg/mL) | > 84 µM | > 84 µM | 10.5 µM (≈ 3.91 µg/mL) | MIC (Nakaseomyces glabratus [18]; [26]): 20.9 µM (≈ 7.78 µg/mL); MIC (Candida parapsilosis [19]): 10.5 µM (≈ 3.91 µg/mL)
CCCCCOCCCCCCNCC(O)(Cn1cncn1)c1ccc(F)cc1F (configuration not stated) | 9.2 to 36.7 µM (≈ 3.91 to 15.6 µg/mL) | 0.57 µM (≈ 0.242 µg/mL) | 73.7 µM (≈ 31.3 µg/mL) | 9.2 µM (≈ 3.91 µg/mL) | 36.7 µM (≈ 15.6 µg/mL) | 4.6 µM (≈ 1.95 µg/mL) | > 73.7 µM | 18.4 µM (≈ 7.81 µg/mL) | 4.6 µM (≈ 1.95 µg/mL) | 4.6 µM (≈ 1.95 µg/mL) | 36.7 µM (≈ 15.6 µg/mL) | 1.1 µM (≈ 0.467 µg/mL) | 9.2 µM (≈ 3.91 µg/mL) | 9.2 µM (≈ 3.91 µg/mL) | 0.28 µM (≈ 0.119 µg/mL) | 73.7 µM (≈ 31.3 µg/mL) | 18.4 µM (≈ 7.81 µg/mL) | 4.6 µM (≈ 1.95 µg/mL) | > 73.7 µM | 0.28 µM (≈ 0.119 µg/mL) | MIC (Nakaseomyces glabratus [18]; [26]): 73.7 µM (≈ 31.3 µg/mL); MIC (Candida parapsilosis [19]): 0.28 µM (≈ 0.119 µg/mL)
OCCCCCCNCC(O)(Cn1cncn1)c1ccc(F)cc1F (configuration not stated) | > 88.3 µM | > 88.3 µM | 88.3 µM (≈ 31.3 µg/mL) | 88.3 µM (≈ 31.3 µg/mL) | > 88.3 µM | > 88.3 µM | > 88.3 µM | > 88.3 µM | > 88.3 µM | > 88.3 µM | > 88.3 µM | > 88.3 µM | > 88.3 µM | > 88.3 µM | 88.3 µM (≈ 31.3 µg/mL) | > 88.3 µM | > 88.3 µM | > 88.3 µM | > 88.3 µM | 88.3 µM (≈ 31.3 µg/mL) | MIC (Nakaseomyces glabratus [18]; [26]): > 88.3 µM; MIC (Candida parapsilosis [19]): 88.3 µM (≈ 31.3 µg/mL)
OC(Cn1cncn1)(Cn1cncn1)c1ccc(F)cc1F [FLUCONAZOLE] | – | – | – | – | – | – | – | – | – | – | – | – | – | – | – | – | – | – | – | – | MIC (Nakaseomyces glabratus [7]): >102.1 µM; MIC (Nakaseomyces glabratus [1]): >=102.2 - 204.1 uM; MIC=<50 (Candida parapsilosis [2]): 6.4 µM (≈ 1.96 µg/mL); MIC (Cryptococcus neoformans [9]): >102.1 µM; MIC=<50 (Candida albicans [3]): 50.9 µM (≈ 15.6 µg/mL); MIC (Cryptococcus neoformans [10]): >102.1 µM; MIC (Nakaseomyces glabratus [11]): >102.1 µM; MIC (Candida albicans [4]): >408.1 µM; MIC=<50 (Candida parapsilosis [15]): 3.2 µM (≈ 0.98 µg/mL); MIC (Candida albicans [5]): >408.1 µM; MIC=<50 (Pichia kudriavzevii): >102.2 µM; MIC (Candida albicans [16]): >408.1 µM; MIC=<50 (Candida parapsilosis [17]): 3.2 µM (≈ 0.98 µg/mL); MIC (Nakaseomyces glabratus [18]): >102.1 µM; MIC=<50 (Candida parapsilosis [19]): 3.2 µM (≈ 0.98 µg/mL)
